The values that follow come from PubChem BioAssay (NCI).

What all share (test): NCI anticancer screen, dose series, 48 h
The subject of test [1] is OVCAR-5 ovarian.
The subject of test [2] is UACC-257 melanoma.
The test system of test [3] is U251 CNS.
Test [4] deals with UACC-62 melanoma.
Test [5] concerns SNB-19 CNS.
In test [6] the test system is SNB-75 CNS.
Test [7] relates to EKVX NSCLC.
Test [8] relates to SF-268 CNS.
Test [9] deals with IGROV1 ovarian.
Test [10] deals with RPMI-8226 leukemia.
The test system of test [11] is SK-MEL-5 melanoma.
Test [12] has as its system A498 renal.
Test [13] deals with LOX IMVI melanoma.
Test [14] has as its system NCI-H226 lung.
Test [15] has as its system OVCAR-3 ovarian.
Test [16] relates to HOP-92 NSCLC.
Test [17] deals with MDA-MB-435.
For test [18], the system named is DU-145 prostate.

SMILES strings stand for the structures.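 Five compound concentrations were applied to cells in 96-well plates for 48 hours; endpoints were derived by simple linear interpolation of the resulting dose-response curve. The concentration for full growth arrest is given as TGI.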 Bounds are passed on as bounds.

As for `CCOC(=O)Nn1c(C)cc(C(=O)OC)c1C`, the TGI in [1], in test [2], in test [3], in test [4], in test [5] and in test [6] was more than 100 µM each time. Moreover, the TGI in test [7], in test [8], in [9], in [10], in [11] and in [12] was more than 100 µM each time. Besides, the TGI in test [13], in test [14] and in [15] was more than 100 µM in each case.

`CC(C)C1COC(c2ccc3ccccc3c2-c2c(O[Si](C)(C)C(C)(C)C)ccc3ccccc23)=N1` (centres undefined): the TGI in test [1] turned out to be 32.6 µM; in test [2], 34.1 µM; in test [16], 26.6 µM; in test [4] it was 30.9 µM; in test [5], 29.2 µM; in [6], 32.5 µM. In addition, the TGI in [7] was 35.3 µM; in test [8], 34.7 µM; in test [9], 35.4 µM; in test [10], 33.2 µM; in test [11], 31.8 µM; in [12], 36.2 µM. The TGI in test [13] came to 45.5 µM; in [14], 26.4 µM; in [15] it was 31.5 µM.

On to `CC(C)(C)C(=O)/C=C/c1cccc(Oc2ccccc2)c1`, for which the TGI was 32.8 µM in test [1]; 28.4 µM in [2]; 23.5 µM in test [3]; 30 µM in test [5]; 64.6 µM in test [6]; 35.9 µM in [7]. In addition, the TGI in test [9] was 78 µM; in test [10], 22.5 µM; in [11], 30.4 µM; in [12], 37.1 µM; in [14], 33.4 µM.

In the case of `Cc1cc(=O)[nH]c(NNC(C#N)c2ccco2)n1` (centres undefined), the TGI in [1], in [2], in test [3], in test [16], in test [4] and in [6] was more than 100 µM in each case. In addition, the TGI in test [8], in test [9], in test [10], in test [11], in test [13] and in [14] was more than 100 µM in each case. Also, in test [15], the TGI was more than 100 µM.

With `O=C(CC(=O)N1N=C(N(c2ccccc2)c2ccccc2)CC1c1ccccc1)Nc1ccccc1` (centres undefined), the TGI in test [1], in test [2], in [3], in test [17], in test [16] and in [4] was more than 100 µM each time. For the same compound, the TGI in [5], in test [6], in test [7], in [8], in test [18] and in [9] was more than 100 µM throughout. Moreover, the TGI in test [10], in [11], in test [14] and in test [15] was more than 100 µM throughout.

Consider `N#CCc1nc(-c2cc3c(ccc4ccccc43)oc2=O)cs1`, for which the TGI in test [1] was more than 100 µM; in test [2], 75.7 µM; in test [3], 38.5 µM; in test [17], more than 100 µM; in test [16], 44.5 µM; in test [4], 68.4 µM. Also, the TGI is 36.4 µM in test [5]; 20.4 µM in [6]; more than 100 µM in [7]; more than 100 µM in test [8]; more than 100 µM in test [18]; 43.7 µM in test [9]. The TGI in test [10] is more than 100 µM; in [11], more than 100 µM; in test [13], more than 100 µM; in test [14], 81.2 µM.

As to `COc1ccc(C2S/C(=C\c3ccccc3)C(=O)N2NC(=O)Cc2ccccc2)cc1` (centres undefined), the TGI in [1], in test [2], in test [3], in test [16], in test [4] and in test [6] was more than 100 µM in each case. Besides, the TGI in [8], in test [9], in [10], in [11], in [12] and in [13] was more than 100 µM throughout. Also, in [14], the TGI was more than 100 µM.

`CCCc1c(C(=O)OCC)[nH]c(C(=O)CCC(=O)c2[nH]c(C(=O)OCC)c(CCC)c2C(=O)OCC)c1C(=O)OCC`: the TGI in test [1], in [2], in test [3], in test [16], in test [4] and in test [5] was more than 100 µM each time. For the same compound, the TGI in [6] is 62.5 µM; in test [7], more than 100 µM; in test [8] it was more than 100 µM; in [9] it was more than 100 µM; in test [10], more than 100 µM; in [11], more than 100 µM. Besides, the TGI in test [12], in test [13], in test [14] and in test [15] was more than 100 µM in each case.

On to `O=C(N/N=C(\c1nc2ccc(Cl)cc2[nH]c1=O)C(O)c1ccccc1Cl)c1ccncc1` (centres undefined), for which the TGI in test [1], in test [2], in test [16], in test [4], in [5] and in [6] was more than 100 µM each time. Also, the TGI in [7], in [8], in test [9], in test [11], in test [12] and in [13] was more than 100 µM throughout. Also, the TGI in test [14] and in test [15] was more than 100 µM each time.
